Test results reported in the NIST ThermoML archive (doi:10.1021/je060271a).

Conditions: 343.15 K, Liquid, Vibrating tube method

CCCCCC(=O)OCC(COC(=O)CCCCC)(COC(=O)CCCCC)COC(=O)CCCCC [pentaerythritol tetrahexanoate]
Conditions | mass density [kg/m3]
1134.6 kPa | 957.9
1280.5 kPa | 958.2
1295.1 kPa | 958.1
1307.6 kPa | 958.1
1320.1 kPa | 958.1
1332.9 kPa | 958.2
1348.2 kPa | 958.2
1414.9 kPa | 958.2
1428.2 kPa | 958.2
1444 kPa | 958.2
1457.4 kPa | 958.2
1470.4 kPa | 958.2
1483.5 kPa | 958.1
1513.7 kPa | 958.3
1557.9 kPa | 958.3
1571.7 kPa | 958.3
1588.7 kPa | 958.4
1603.1 kPa | 958.4
1617.5 kPa | 958.4
1697.7 kPa | 958.3
1713.1 kPa | 958.5
1728.4 kPa | 958.5
1747.5 kPa | 958.3
1763.5 kPa | 958.4
1779.3 kPa | 958.3
1795.9 kPa | 958.4
1815 kPa | 958.5
1831.3 kPa | 958.5
1848.3 kPa | 958.5
1865 kPa | 958.4
1884.9 kPa | 958.5
1902.5 kPa | 958.6
1920.5 kPa | 958.6
1937.8 kPa | 958.6
1958.6 kPa | 958.5
1976.1 kPa | 958.6
1993.6 kPa | 958.7
2012 kPa | 958.6
2033.4 kPa | 958.6
2051.6 kPa | 958.6
2070.2 kPa | 958.9
2092.2 kPa | 958.6
2363.6 kPa | 958.8
2384.2 kPa | 958.9
2409 kPa | 959
2429.7 kPa | 959
2451.3 kPa | 959
2477.2 kPa | 959.1
2710.1 kPa | 959.1
2733 kPa | 959.1
2756.2 kPa | 959.1
2778.8 kPa | 959.3
2805.7 kPa | 959.1
2828.2 kPa | 959.3
2850.2 kPa | 959.4
2877.4 kPa | 959.2
2900.2 kPa | 959.2
2971.9 kPa | 959.4
2994.1 kPa | 959.4
3021 kPa | 959.5
3043.4 kPa | 959.5
3066.1 kPa | 959.4
3093.1 kPa | 959.5
3115.3 kPa | 959.5
3138.2 kPa | 959.4
3165.6 kPa | 959.5
3188.6 kPa | 959.5
3212 kPa | 959.6
3235.3 kPa | 959.5
3263.5 kPa | 959.6
3286.6 kPa | 959.7
3314.6 kPa | 959.6
3338.4 kPa | 959.7
3362.1 kPa | 959.6
3386.4 kPa | 959.6
3410.3 kPa | 959.6
3439.1 kPa | 959.8
3463 kPa | 959.8
3486.9 kPa | 959.8
3514.8 kPa | 959.7
3538.6 kPa | 959.8
3563 kPa | 959.8
3592.3 kPa | 959.9
3616.2 kPa | 960
3640.6 kPa | 959.9
3665.4 kPa | 959.8
3695 kPa | 959.9
3719.3 kPa | 959.8
3743.2 kPa | 960
3768 kPa | 960
3796.7 kPa | 960
3821.2 kPa | 960
4008.1 kPa | 960.2
4035.6 kPa | 960.1
4062.6 kPa | 960.2
4089.1 kPa | 960.2
4120.6 kPa | 960.3
4147.6 kPa | 960.4
4174.5 kPa | 960.3
4201.5 kPa | 960.3
4234.2 kPa | 960.2
4261.2 kPa | 960.4
4288.4 kPa | 960.4
4316.6 kPa | 960.4
4350.4 kPa | 960.4
4378.3 kPa | 960.5
4414.7 kPa | 960.4
4437.5 kPa | 960.5
4465.6 kPa | 960.6
4499.5 kPa | 960.5
4528.1 kPa | 960.6
4557.2 kPa | 960.6
4592.3 kPa | 960.7
4621.6 kPa | 960.6
4656.7 kPa | 960.6
4686.5 kPa | 960.7
4715.9 kPa | 960.6
4751.9 kPa | 960.8
4781.7 kPa | 960.8
4812.3 kPa | 960.7
4843.3 kPa | 960.8
4880.7 kPa | 960.9
4911.1 kPa | 960.8
4942.3 kPa | 961
4973.8 kPa | 960.9
5010.3 kPa | 960.9
5041.6 kPa | 960.9
5073.3 kPa | 961
5110.1 kPa | 961
5141.5 kPa | 960.9
5173.8 kPa | 961
5212.2 kPa | 961.1
5245.4 kPa | 961.1
5277.4 kPa | 961.2
5309.8 kPa | 961.2
5348.9 kPa | 961.2
5381.6 kPa | 961.3
5415.2 kPa | 961.3
5454.8 kPa | 961.2
5488.1 kPa | 961.3
5521.5 kPa | 961.3
5555.1 kPa | 961.3
5594.9 kPa | 961.4
5627.9 kPa | 961.3
5662.1 kPa | 961.3
